From the NIST ThermoML archive (doi:10.1016/j.jct.2016.03.030)
Numbers after ± are expanded uncertainties.

Assay: xn = mol fraction of the nth substance listed
Conditions: 100 kPa, Liquid; for viscosity: Falling or rolling sphere viscometry; for mass density: Vibrating tube method

## CCC[N+]1(C)CCOCC1.[Br-] [4-methyl-4-propylmorpholinium bromide] + O
298.15 K, x1 = 0.0336
  viscosity: 1.651 ± 0.17 mPa·s
  mass density: 1084.6 ± 1.1 kg/m3
298.15 K, x1 = 0.0618
  viscosity: 2.638 ± 0.27 mPa·s
  mass density: 1135.4 ± 1.1 kg/m3
298.15 K, x1 = 0.0875
  viscosity: 4.066 ± 0.41 mPa·s
  mass density: 1170.4 ± 1 kg/m3
298.15 K, x1 = 0.1298
  viscosity: 8.208 ± 0.82 mPa·s
  mass density: 1213 ± 1 kg/m3
298.15 K, x1 = 0.1709
  viscosity: 15.89 ± 1.6 mPa·s
  mass density: 1242.8 ± 1.1 kg/m3
298.15 K, x1 = 0.2036
  viscosity: 26.67 ± 2.7 mPa·s
  mass density: 1260.9 ± 1.1 kg/m3
298.15 K, x1 = 0.254
  viscosity: 62.45 ± 6.3 mPa·s
  mass density: 1282.4 ± 1.2 kg/m3
298.15 K, x1 = 0.2742
  viscosity: 90.09 ± 9.2 mPa·s
  mass density: 1289.4 ± 1.3 kg/m3
298.15 K, x1 = 0.3025
  viscosity: 154 ± 16 mPa·s
  mass density: 1298.2 ± 1.4 kg/m3
303.15 K, x1 = 0.0336
  viscosity: 1.45 ± 0.14 mPa·s
  mass density: 1082.5 ± 1.1 kg/m3
303.15 K, x1 = 0.0618
  viscosity: 2.291 ± 0.23 mPa·s
  mass density: 1132.9 ± 1.1 kg/m3
303.15 K, x1 = 0.0875
  viscosity: 3.483 ± 0.35 mPa·s
  mass density: 1167.6 ± 1 kg/m3
303.15 K, x1 = 0.1298
  viscosity: 6.823 ± 0.68 mPa·s
  mass density: 1209.9 ± 1 kg/m3
303.15 K, x1 = 0.1709
  viscosity: 12.9 ± 1.3 mPa·s
  mass density: 1239.6 ± 1.1 kg/m3
303.15 K, x1 = 0.2036
  viscosity: 20.98 ± 2.1 mPa·s
  mass density: 1257.7 ± 1.1 kg/m3
303.15 K, x1 = 0.254
  viscosity: 46.52 ± 4.7 mPa·s
  mass density: 1279.2 ± 1.2 kg/m3
303.15 K, x1 = 0.2742
  viscosity: 66.14 ± 6.7 mPa·s
  mass density: 1286.1 ± 1.3 kg/m3
303.15 K, x1 = 0.3025
  viscosity: 108.8 ± 11 mPa·s
  mass density: 1294.9 ± 1.3 kg/m3
308.15 K, x1 = 0.0336
  viscosity: 1.281 ± 0.13 mPa·s
  mass density: 1080.2 ± 1.1 kg/m3
308.15 K, x1 = 0.0618
  viscosity: 2.002 ± 0.2 mPa·s
  mass density: 1130.2 ± 1.1 kg/m3
308.15 K, x1 = 0.0875
  viscosity: 3 ± 0.3 mPa·s
  mass density: 1164.7 ± 1 kg/m3
308.15 K, x1 = 0.1298
  viscosity: 5.723 ± 0.57 mPa·s
  mass density: 1206.8 ± 1 kg/m3
308.15 K, x1 = 0.1709
  viscosity: 10.62 ± 1.1 mPa·s
  mass density: 1236.4 ± 1.1 kg/m3
308.15 K, x1 = 0.2036
  viscosity: 16.76 ± 1.7 mPa·s
  mass density: 1254.4 ± 1.1 kg/m3
308.15 K, x1 = 0.254
  viscosity: 35.35 ± 3.6 mPa·s
  mass density: 1275.9 ± 1.2 kg/m3
308.15 K, x1 = 0.2742
  viscosity: 49.51 ± 5 mPa·s
  mass density: 1282.8 ± 1.3 kg/m3
308.15 K, x1 = 0.3025
  viscosity: 79.28 ± 8 mPa·s
  mass density: 1291.6 ± 1.3 kg/m3
313.15 K, x1 = 0.0336
  viscosity: 1.14 ± 0.11 mPa·s
  mass density: 1077.8 ± 1.1 kg/m3
313.15 K, x1 = 0.0618
  viscosity: 1.761 ± 0.18 mPa·s
  mass density: 1127.5 ± 1.1 kg/m3
313.15 K, x1 = 0.0875
  viscosity: 2.61 ± 0.26 mPa·s
  mass density: 1161.7 ± 1 kg/m3
313.15 K, x1 = 0.1298
  viscosity: 4.854 ± 0.49 mPa·s
  mass density: 1203.6 ± 1 kg/m3
313.15 K, x1 = 0.1709
  viscosity: 8.847 ± 0.89 mPa·s
  mass density: 1233.1 ± 1.1 kg/m3
313.15 K, x1 = 0.2036
  viscosity: 13.62 ± 1.4 mPa·s
  mass density: 1251.1 ± 1.1 kg/m3
313.15 K, x1 = 0.254
  viscosity: 27.4 ± 2.8 mPa·s
  mass density: 1272.6 ± 1.2 kg/m3
313.15 K, x1 = 0.2742
  viscosity: 38.4 ± 3.9 mPa·s
  mass density: 1279.5 ± 1.3 kg/m3
313.15 K, x1 = 0.3025
  viscosity: 59.26 ± 6 mPa·s
  mass density: 1288.3 ± 1.3 kg/m3
318.15 K, x1 = 0.0336
  viscosity: 1.02 ± 0.1 mPa·s
  mass density: 1075.3 ± 1.1 kg/m3
318.15 K, x1 = 0.0618
  viscosity: 1.559 ± 0.16 mPa·s
  mass density: 1124.7 ± 1.1 kg/m3
318.15 K, x1 = 0.0875
  viscosity: 2.287 ± 0.23 mPa·s
  mass density: 1158.7 ± 1 kg/m3
318.15 K, x1 = 0.1298
  viscosity: 4.155 ± 0.42 mPa·s
  mass density: 1200.4 ± 1 kg/m3
318.15 K, x1 = 0.1709
  viscosity: 7.459 ± 0.75 mPa·s
  mass density: 1229.9 ± 1.1 kg/m3
318.15 K, x1 = 0.2036
  viscosity: 11.23 ± 1.1 mPa·s
  mass density: 1247.8 ± 1.1 kg/m3
318.15 K, x1 = 0.254
  viscosity: 21.7 ± 2.2 mPa·s
  mass density: 1269.2 ± 1.2 kg/m3
318.15 K, x1 = 0.2742
  viscosity: 30.07 ± 3 mPa·s
  mass density: 1276.2 ± 1.3 kg/m3
318.15 K, x1 = 0.3025
  viscosity: 45.23 ± 4.5 mPa·s
  mass density: 1285.1 ± 1.3 kg/m3
323.15 K, x1 = 0.0336
  viscosity: 0.909 ± 0.091 mPa·s
  mass density: 1072.3 ± 1.1 kg/m3
323.15 K, x1 = 0.0618
  viscosity: 1.372 ± 0.14 mPa·s
  mass density: 1121.8 ± 1.1 kg/m3
323.15 K, x1 = 0.0875
  viscosity: 1.988 ± 0.2 mPa·s
  mass density: 1155.7 ± 1 kg/m3
323.15 K, x1 = 0.1298
  viscosity: 3.541 ± 0.35 mPa·s
  mass density: 1197.2 ± 1 kg/m3
323.15 K, x1 = 0.1709
  viscosity: 6.268 ± 0.63 mPa·s
  mass density: 1226.6 ± 1.1 kg/m3
323.15 K, x1 = 0.2036
  viscosity: 9.267 ± 0.93 mPa·s
  mass density: 1244.5 ± 1.1 kg/m3
323.15 K, x1 = 0.254
  viscosity: 17.23 ± 1.7 mPa·s
  mass density: 1265.9 ± 1.2 kg/m3
323.15 K, x1 = 0.2742
  viscosity: 23.66 ± 2.4 mPa·s
  mass density: 1272.9 ± 1.2 kg/m3
323.15 K, x1 = 0.3025
  viscosity: 34.94 ± 3.5 mPa·s
  mass density: 1281.7 ± 1.3 kg/m3
328.15 K, x1 = 0.0336
  viscosity: 0.812 ± 0.081 mPa·s
  mass density: 1069.9 ± 1.1 kg/m3
328.15 K, x1 = 0.0618
  viscosity: 1.215 ± 0.12 mPa·s
  mass density: 1118.8 ± 1.1 kg/m3
328.15 K, x1 = 0.0875
  viscosity: 1.742 ± 0.17 mPa·s
  mass density: 1152.5 ± 1 kg/m3
328.15 K, x1 = 0.1298
  viscosity: 3.047 ± 0.31 mPa·s
  mass density: 1193.9 ± 1 kg/m3
328.15 K, x1 = 0.1709
  viscosity: 5.322 ± 0.53 mPa·s
  mass density: 1223.2 ± 1.1 kg/m3
328.15 K, x1 = 0.2036
  viscosity: 7.756 ± 0.78 mPa·s
  mass density: 1241.1 ± 1.1 kg/m3
328.15 K, x1 = 0.254
  viscosity: 13.96 ± 1.4 mPa·s
  mass density: 1262.6 ± 1.2 kg/m3
328.15 K, x1 = 0.2742
  viscosity: 19.1 ± 1.9 mPa·s
  mass density: 1269.5 ± 1.2 kg/m3
328.15 K, x1 = 0.3025
  viscosity: 27.52 ± 2.8 mPa·s
  mass density: 1278.4 ± 1.3 kg/m3
333.15 K, x1 = 0.0336
  viscosity: 0.736 ± 0.074 mPa·s
  mass density: 1066.3 ± 1.1 kg/m3
333.15 K, x1 = 0.0618
  viscosity: 1.088 ± 0.11 mPa·s
  mass density: 1115.5 ± 1.1 kg/m3
333.15 K, x1 = 0.0875
  viscosity: 1.547 ± 0.15 mPa·s
  mass density: 1149.1 ± 1 kg/m3
333.15 K, x1 = 0.1298
  viscosity: 2.654 ± 0.27 mPa·s
  mass density: 1190.6 ± 1 kg/m3
333.15 K, x1 = 0.1709
  viscosity: 4.582 ± 0.46 mPa·s
  mass density: 1219.9 ± 1.1 kg/m3
333.15 K, x1 = 0.2036
  viscosity: 6.587 ± 0.66 mPa·s
  mass density: 1237.8 ± 1.1 kg/m3
333.15 K, x1 = 0.254
  viscosity: 11.53 ± 1.2 mPa·s
  mass density: 1259.2 ± 1.2 kg/m3
333.15 K, x1 = 0.2742
  viscosity: 15.71 ± 1.6 mPa·s
  mass density: 1266.2 ± 1.2 kg/m3
333.15 K, x1 = 0.3025
  viscosity: 22.11 ± 2.2 mPa·s
  mass density: 1275.1 ± 1.3 kg/m3
338.15 K, x1 = 0.0336
  viscosity: 0.668 ± 0.067 mPa·s
  mass density: 1064.5 ± 1.1 kg/m3
338.15 K, x1 = 0.0618
  viscosity: 0.979 ± 0.098 mPa·s
  mass density: 1113.1 ± 1.1 kg/m3
338.15 K, x1 = 0.0875
  viscosity: 1.378 ± 0.14 mPa·s
  mass density: 1145.3 ± 1 kg/m3
338.15 K, x1 = 0.1298
  viscosity: 2.426 ± 0.24 mPa·s
  mass density: 1187.3 ± 1 kg/m3
338.15 K, x1 = 0.1709
  viscosity: 4.142 ± 0.42 mPa·s
  mass density: 1216.5 ± 1.1 kg/m3
338.15 K, x1 = 0.2036
  viscosity: 5.636 ± 0.57 mPa·s
  mass density: 1234.4 ± 1.1 kg/m3
338.15 K, x1 = 0.254
  viscosity: 9.633 ± 0.97 mPa·s
  mass density: 1255.9 ± 1.2 kg/m3
338.15 K, x1 = 0.2742
  viscosity: 12.97 ± 1.3 mPa·s
  mass density: 1262.9 ± 1.2 kg/m3
338.15 K, x1 = 0.3025
  viscosity: 18.05 ± 1.8 mPa·s
  mass density: 1271.7 ± 1.3 kg/m3
343.15 K, x1 = 0.0336
  viscosity: 0.63 ± 0.063 mPa·s
  mass density: 1061.9 ± 1.1 kg/m3
343.15 K, x1 = 0.0618
  viscosity: 0.925 ± 0.093 mPa·s
  mass density: 1110.2 ± 1.1 kg/m3
343.15 K, x1 = 0.0875
  viscosity: 1.303 ± 0.13 mPa·s
  mass density: 1142 ± 1 kg/m3
343.15 K, x1 = 0.1298
  viscosity: 2.269 ± 0.23 mPa·s
  mass density: 1183.9 ± 1 kg/m3
343.15 K, x1 = 0.1709
  viscosity: 4.062 ± 0.81 mPa·s
  mass density: 1213.1 ± 1.1 kg/m3
343.15 K, x1 = 0.2036
  viscosity: 4.879 ± 0.49 mPa·s
  mass density: 1231 ± 1.1 kg/m3
343.15 K, x1 = 0.254
  viscosity: 8.213 ± 0.82 mPa·s
  mass density: 1252.5 ± 1.2 kg/m3
343.15 K, x1 = 0.2742
  viscosity: 10.96 ± 1.1 mPa·s
  mass density: 1259.5 ± 1.2 kg/m3
343.15 K, x1 = 0.3025
  viscosity: 14.99 ± 1.5 mPa·s
  mass density: 1268.4 ± 1.3 kg/m3
